Measurements taken from patent EP4678172A1, “USE OF NAPHTHYLAMIDE COMPOUND IN TREATMENT OF MENINGIOMA” (Shanghai Runshi Medical Technology Co., Ltd, priority 2023, dated 2024).

What was measured:
[1] = tested on: Human meningioma cell line IOMM-Lee cells; assay: Trypan blue viable cell counting, cell viability; type: cell-based; conditions: 24 h
Experimental: Human meningioma cell line IOMM-Lee cells (purchased from ATCC) were cultured using a DMED culture medium containing 10% FBS and 100 U/mL penicillin-streptomycin double antibiotics in an incubator with 5% CO2 at 37 °C. The cells in the logarithmic growth phase were seeded uniformly in a 6-well plate at a density of 2 × 10^5 cells/mL and cultured for 24 h, and then the cells were grouped into a blank control group and compound (I) treatment groups at different concentrations. The compound (I) treatment concentrations were 0.4 µM, 0.8 µM, 1.6 µM, 2 µM, 10 µM, 20 µM, 60 µM, and 120 µM, and 3-4 replicate wells were set for each group. After cells in the groups were separately cultured for 24 h, the cells were digested with 0.25% trypsin, and 50 µL of each cell suspension was mixed with 50 µL of 0.4% trypan blue solution to a final trypan blue concentration of 0.2%. Subsequently, 10 µL of the uniform cell suspension was added to a counting plate and counted under a microscope for the total cell count and dead cell count. Statistical analysis was performed.

[2] = tested on: meningioma cells IOMM-Lee; assay: EdU cell proliferation assay; type: cell-based, human; conditions: 1 µM, 24 h, versus blank control group
Experimental: The IOMM-Lee single cell suspension in the logarithmic growth phase obtained in Example 1 was seeded in a 6-well plate at a cell density of 3 × 10^5 cells/mL, cultured overnight, and grouped into a blank control group and a compound (I) treatment group (concentration: 1 µM; treatment duration: 24 h). Subsequently, each group was incubated with EdU (10 µM) for 2 h; the culture medium was discarded; and the cells were washed with PBS (in this experiment, PBS was used in the washing process). The cells were fixed with 4% paraformaldehyde; the stationary liquid was discarded; and the cells were washed. After that, the cells were permeabilized with 0.3% Triton X100; the permeabilization liquid was discarded; and the cells were washed. Then, a prepared click reaction solution (commercially available C0081 BeyoClick™ EdU Cell Proliferation Kit with Alexa Fluor 647) was added; the mixture was incubated in the dark at room temperature for 30 min; the reaction solution was discarded; and the cells were washed. The cell nuclei were stained with Hoechst 33342 fluorescent dye by adding 1× Hoechst 33342 solution at 1 mL/well, followed by incubated in the dark at room temperature for 10 min; 1× Hoechst 33342 solution was removed by pipetting; and the cells were washed 3 times. Subsequently, a fluorescence assay was performed, and the results were recorded.

patients with meningioma = assay: Phase I clinical trial, tumor assessment by RANO criteria for meningioma; type: in vivo, human; conditions: for C2 target lesion shrinkage / target lesion shrinkage: head MRI; for target lesion shrinkage: after 6 cycles
Experimental: Compound (I) is currently undergoing phase I clinical trials to evaluate the preliminary efficacy on patients with meningioma.
Drug: compound (I) oral solution, 10-25 mg/day, once daily.
If no serious adverse events occurred, subsequent treatment cycles (21 days for each cycle) of administration may begin until progressive disease (PD) or intolerable toxicity occurred.
The efficacy on tumors was evaluated according to the RANO Criteria for Meningioma (Huang, Raymond Y et al. Proposed response assessment and endpoints for meningioma clinical trials: report from the Response Assessment in Neuro-Oncology Working Group. Neuro-oncology. vol. 21, 1 (2019): 26-36. doi:10.1093/neuonc/noy137). Target lesions were selected from tumor lesions with enhancement according to the criteria and precisely measured. The tumor treatment efficacy on the target lesions was confirmed by comparing the changes in the measured values. […] In addition, the improvement and deterioration of clinical symptoms of patients and the change in steroid hormone doses for symptomatic treatment of neurological symptoms were also used as evaluation indexes in tumor assessment. A tumor assessment was performed at baseline prior to the first administration and then performed once every 6 weeks during the administration until progressive disease (PD) occurred or a new anti-tumor treatment started.

IOMM-Lee [3] = assay: Transwell chamber assay (invasion); type: cell-based, human; conditions: IOMM-Lee, 0.5, 1, 2 µM and 2, 5, 10 µM, 24 h; with increasing concentration
Experimental: (§1) • (1) The upper chamber of the pre-cooled Transwell chamber was coated with 50 µL of matrigel, and the matrigel-coated chamber was incubated in an incubator at 37 °C for 6-8 h to allow the matrigel to polymerize into a gel. After 100 µL of a serum-free culture medium was added to each well, the chamber was placed in an incubator for 1 h to allow the basement membrane hydration. The liquid in the upper chamber was removed, and the IOMM-Lee single cell suspension in the logarithmic growth phase was adjusted to a cell density of 2 × 10^5 cells/mL using the serum-free DMEM culture medium; 200 µL of the cell suspension was added to the Transwell chamber; and the culture liquid in the lower chamber was a DMEM culture medium with 20% FBS. Compound (I) samples at different concentrations (0 µM, 0.5 µM, 1 µM, and 2 µM, respectively) were added to the chamber. The culture was finished 24 h later; and the cells in the chamber were removed with a cotton swab, fixed with 4% paraformaldehyde for 20 min, washed with PBS 3 times, stained with crystal violet for 30 min, and observed under a microscope. The invading cells were counted. • (2) With reference to the experimental method (1), the concentrations in the compound (I) treatment groups were replaced by 2 µM, 5 µM, and 10 µM, respectively, and the used human meningioma cell line was IOMM-Lee or CH157-MN.

CH157-MN [4] = assay: Transwell chamber assay (invasion); type: cell-based, human; conditions: CH157-MN, 2, 5, 10 µM, 24 h; with increasing concentration
Experimental: as §1

[5] = Animal long-term toxicity test, conversion to human maximum tolerated dose; type: in vivo; conditions: converted from animal long-term toxicity test, human body weight of 60 kg
Experimental: A specific dose and administration frequency can be determined by a skilled physician according to conventional skills allowing for factors such as the route of administration, the health condition of the patient, etc. In the first dose escalation study (phase I trial) in a human, the most sensitive animal species were selected to calculate the maximum recommended starting dose for clinical trials according to the pre-clinical toxicology study. The starting dose was calculated according to the calculation methods recommended by "Technical Guidelines for Non-Clinical Research on Anti-Cancer Drugs" and other guidelines. In some embodiments, in the phase 1 clinical trial of compound (I), in order to ensure the safety of subjects, in combination with the operability of clinical trials and formulation specification, the starting dose of compound (I) for the phase I clinical trial was designed to be 5 mg. Based on the results of an animal long-term toxicity test, the maximum tolerated dose for the human body is converted into 200 mg according to the human body weight of 60 kg. In the phase 1 clinical trial of compound (I), the safety, tolerance, and efficacy of the continuous administration regimen of a daily administration dose of 5 mg-200 mg were researched. […]

IOMM-Lee [6] = assay: Apoptosis by annexin V-FITC/PI flow cytometry; type: cell-based, human; conditions: IOMM-Lee, 1, 5, 10 µM and 2, 5, 10 µM, 24 h, versus blank control
Experimental: (§2) • (1) The IOMM-Lee single cell suspension in the logarithmic growth phase was seeded in a 6-well plate at a cell density of 5 × 10^5 cells/mL, cultured overnight, and grouped into a blank control group and compound (I) treatment groups at different concentrations, with concentrations of compound (I) being 1 µM, 5 µM, and 10 µM, respectively, and 3-4 replicate wells were set. After the addition of compound (I) at different concentrations for the treatment for 24 h, (1-10) × 10^5 cells were collected from the blank control group and each compound (I) treatment group, washed with PBS, and centrifuged. The cells were resuspended in 500 µL of 1× binding buffer. 5 µL of annexin V-FITC and 10 µL of PI were added to each tube. After gently and homogeneously mixing by vortex, the cells were incubated in the dark at room temperature for 5 min and then subjected to flow cytometry. • (2) With reference to the experimental method (1), the concentrations in the compound (I) treatment groups were replaced by 2 µM, 5 µM, and 10 µM, respectively, and the used human meningioma cell line was IOMM-Lee or CH157-MN.

CH157-MN [7] = assay: Apoptosis by annexin V-FITC/PI flow cytometry; type: cell-based, human; conditions: CH157-MN, 2, 5, 10 µM, 24 h, versus blank control
Experimental: as §2

IOMM-Lee [8] = assay: Cell scratch assay (migration); type: cell-based, human; conditions: IOMM-Lee, 0.5, 1, 2 µM and 2, 5, 10 µM, 24 h, versus blank control; dose-dependent
Experimental: (§3) • (1) The IOMM-Lee single cell suspension in the logarithmic growth phase was seeded in a 6-well plate at a cell density of 6 × 10^5 cells/mL and cultured for 24 h to ensure the full covering of the entire cell culture dish by the growing cells. A cell scratch was made by a 10 µL sterile pipette tip perpendicular to the culture dish; the original culture solution was discarded; and the detached cells were pipetted by washing with PBS 3 times. The cells were cultured using a serum-free DMEM culture medium and grouped into a blank control group and compound (I) treatment groups at different concentrations, where the compound (I) treatment groups had concentrations of 0.5 µM, 1 µM, and 2 µM, respectively. The cells were observed under the bright field of a microscope and recorded at 0 h and 24 h. • (2) With reference to the experimental method (1), the concentrations in the compound (I) treatment groups were replaced by 2 µM, 5 µM, and 10 µM, respectively, and the used human meningioma cell line was IOMM-Lee or CH157-MN.

CH157-MN [9] = assay: Cell scratch assay (migration); type: cell-based, human; conditions: CH157-MN, 2, 5, 10 µM, 24 h, versus blank control; dose-dependent
Experimental: as §3

[10] = 34 meningioma patients, oral solution 10-25 mg/day
[11] = RANO criteria for meningioma, 34 meningioma patients, oral solution 10-25 mg/day
[12] = by Feb. 2, 2024, 32 patients completed the tumor assessment, oral solution 10-25 mg/day
[13] = by Jan. 16, 2023, 5 patients completed the tumor assessment, oral solution 10-25 mg/day
[14] = of 34 meningioma patients, oral solution 10-25 mg/day

With Cc1cc(NC(=O)c2cccc3cc(-c4cccc5[nH]nc(N)c45)ccc23)ccc1F [compound (I)] the viability at 0.4 µM ([1]; compound (I) 0.4 µM) was 71.8 ± 4.06%, the viability at 0.8 µM ([1]; compound (I) 0.8 µM) was 56.8 ± 5.19% and the viability at 1.6 µM ([1]; compound (I) 1.6 µM) was 48.3 ± 10.5%. For the same compound, the viability at 2 µM ([1]; compound (I) 2 µM) was 45.3 ± 1.91%, the viability at 10 µM ([1]; compound (I) 10 µM) was 35 ± 3.93% and the viability at 20 µM ([1]; compound (I) 20 µM) was 22.6 ± 2.72%. It also gave a viability at 60 µM ([1]; compound (I) 60 µM) of 19.3 ± 0.52%, a viability at 80 µM ([1]; compound (I) 80 µM) of 6.33 ± 1.71% and a viability at 120 µM ([1]; compound (I) 120 µM) of 0%. The “EdU-labeled (proliferating) cells” value [2] was “significantly fewer than those in the blank control group”, the “adverse events associated with the administration (severity)” value (patients with meningioma; [10]) was “mostly mild and moderate” and the “adverse events with an incidence of greater than 20%” value (patients with meningioma; [10]) was “hypertension, decreased platelet count, increased blood lactate dehydrogenase, sinus bradycardia, proteinuria, increased aspartate aminotransferase, increased alanine aminotransferase, hypokalemia, hyperlipidemia, decreased neutrophil count, decreased leukocyte count, diarrhea, and anemia”. The disease control rate (patients with meningioma; [11]) was 82.4%, the objective remission rate (patients with meningioma; [11]) was 29.41% and the “C2 target lesion shrinkage” value (patients with meningioma; Typical case 1: anaplastic meningioma WHO grade III, oral solution 15 mg once daily, two cycles) was 56%. The “adverse events during the treatment” value (patients with meningioma; Typical case 1: oral solution 15 mg once daily) was “No adverse events”, the “clinical symptoms reported by subject” value (patients with meningioma; Typical case 1: oral solution 15 mg once daily, two cycles) was “significantly mitigated head-distending pain” and the “clinical symptoms of subject” value (patients with meningioma; Typical case 2: baseline blindness in both eyes, oral solution 15 mg once daily, after two cycles) was “vision recovery and self-care recovery”. For the same compound, the “C2 target lesion shrinkage” value (patients with meningioma; Typical case 2: meningioma (fibrous) WHO grade I, oral solution 15 mg once daily, two cycles) was 36%, the “main adverse event during the treatment” value (patients with meningioma; Typical case 2: oral solution 15 mg once daily, recovered after administration was suspended) was “mild or moderate hypertension” and the “C2 target lesion shrinkage” value (patients with meningioma; Typical case 3: malignant meningioma, oral solution 15 mg once daily) was 56%. For the same compound, the “main adverse event during the treatment” value (patients with meningioma; Typical case 3: oral solution 15 mg once daily, recovered after taking a hypotensor) was “mild or moderate hypertension”, the target lesion shrinkage (patients with meningioma; Typical case 4: atypical meningioma WHO grade II, oral solution 20 mg once daily) was 61.47% and the “main adverse events during the treatment” value (patients with meningioma; Typical case 4: oral solution 20 mg once daily, recovered after symptomatic treatment) was “mild proteinuria, decreased platelet count, decreased neutrophil count, decreased leucocyte count, and increased alanine aminotransferase”. The “main adverse events during the treatment” value (patients with meningioma; Typical case 5: oral solution 25 mg once daily, mitigated/recovered after symptomatic treatment) was “mild hypertension, decreased platelet count, decreased neutrophil count, and increased alanine aminotransferase”, the target lesion shrinkage (patients with meningioma; Typical case 5: papillary meningioma WHO grade III, oral solution 25 mg once daily) was 36.73% and the MR cases (patients with meningioma; [12]) was 6. It also gave a PR cases (patients with meningioma; [12]) of 4, an MR case (patients with meningioma; [13]) of 1 and a PR cases (patients with meningioma; [13]) of 2. The “patients exhibited tumor shrinkage after administration” value (patients with meningioma; [14]) was 26 patients, the “patients exhibiting tumor shrinkage after administration, share of all patients” value (patients with meningioma; [14]) was 76.5% and the invasion rates (IOMM-Lee [3]) was “significantly decreased”. For the same compound, the invasion rates (CH157-MN [4]) was “significantly decreased”, the “maximum tolerated dose for the human body” value [5] was 200 mg and the late apoptosis (IOMM-Lee [6]) was “significantly increased”. The “total cell apoptosis ratio” value (IOMM-Lee [6]; with increasing concentration) was “increased”, the late apoptosis (CH157-MN [7]) was “significantly increased” and the “total cell apoptosis ratio” value (CH157-MN [7]; with increasing concentration) was “increased”. For the same compound, the cell scratch healing (IOMM-Lee [8]) was “significantly weaker cell scratch healing than that of the blank control group” and the cell scratch healing (CH157-MN [9]) was “significantly weaker cell scratch healing than that of the blank control group”.
